Experiments:
3T3-L1 adipocytes [1] = test: Lipolysis: free fatty acid release in differentiated adipocytes (BioVision Free Fatty Acid Quantification Kit); type: cell-based, murine; settings: 100 μg/ml, overnight; for free fatty acids production in adipocytes relative to known lipolysis inducers (FIG. 4): compared with carnitine, resveratrol, isoproterenol, aminophylline, theophylline, caffeine
Experimental: The degree of fatty acid release can be used to gauge the relative level of glycerol release given this correlation. The following methods were used to determine the effect of 4-methyl-2-(octanoylamino) pentanoic acid and N-isopentyloctanamide on lipolysis in adipocytes.
(§1) The induction of lipolysis in differentiated adipocytes was determined in 3T3-L1 adipocytes using a fatty acid assay kit manufactured by BioVision (Mountain View, Calif.) (Free Fatty Acid Quantification Kit, Cat. No. K612-100). Free fatty acid release correlates with an increase in the level of glycerol. Adipocytes for these assays were prepared as follows. 3T3-L1 murine pre-adipocytes were purchased from the American Type Culture Collection (ATCC) (CL-173™). The cells were cultured in complete medium (ATCC-formulated Dulbecco's Modified Eagle's Medium supplemented with 10% bovine calf serum) and allowed to reach 100% confluence. The induction of differentiation or adipogenesis was carried out in complete medium. On day 0, cells were treated with complete medium containing induction agents (100 μg/ml isobutylmethyxanthine (Sigma, St. Louis, Mo.), 5 μg/ml insulin and 2 μg/ml dexamethasone). On day 3, cells were changed to complete medium containing 5 μg/ml insulin and incubated for 2-3 days. Then, cells were maintained in complete medium for 3-6 days when the majority of cells developed observable intracellular lipid droplets.
For analyzing the effects of 4-methyl-2-(octanoylamino) pentanoic acid and N-isopentyloctanamide on lipolysis, cells (adipocytes prepared above) were treated with either of these compounds at 100 μg/ml. Alternatively, cells were treated overnight with certain substances (e.g., resveratrol, isoproterenol, aminophylline, theophylline) (100 μg/ml) previously known to be lipolysis inducers. Supernatant from each of the cultures was measured for relative glycerol release as estimated using the free fatty acid quantification kit from BioVision following the manufacturer's instructions.

EpiDerm™ Skin Model = test: EpiDerm MTT assay for cytotoxicity toward skin tissue; type: cell-based; settings: for cell viability (OD570) compared to the glycerin vehicle: 100 μg/ml, 2, 5 and 18 hour incubation (FIG. 7); for toxicity to skin tissue: 1 mg/ml for 24 hours (data not shown)
3T3-L1 adipocytes [2] = test: Cytotoxicity to adipocytes at the concentrations used to stimulate lipolysis; type: cell-based, murine; settings: at the concentrations used to stimulate lipolysis (data not shown)
Description: Both HB2031 and HB2032 were not cytotoxic to 3T3-L1 adipocytes at the concentrations used to simulate lipolysis (data not shown).

3T3-L1 preadipocytes = test: Adipogenesis assay, Oil red O staining of lipid droplets (Cayman Adipogenesis Assay Kit); type: cell-based, murine
Experimental: as §1
Intracellular lipid droplet production in adipocytes is a feature of adipogenesis. Therefore, adipogenesis was monitored by staining for lipid droplets in cells using the Adipogenesis Assay Kit from Cayman (Ann Arbor, Mich.) following the manufacture's instructions. […]

SMILES | free fatty acids production compared with isoproterenol, assay in triplicate (FIG. 5) (3T3-L1 adipocytes [1]) | free fatty acids production in adipocytes relative to known lipolysis inducers (FIG. 4) (3T3-L1 adipocytes [1]) | cell viability (OD570) compared to the glycerin vehicle (EpiDerm™ Skin Model) | toxicity to skin tissue (EpiDerm™ Skin Model) | cytotoxicity to 3T3-L1 adipocytes (3T3-L1 adipocytes [2]) | differentiation of cells into adipocytes (enlarged cells, intracellular lipid droplets) (3T3-L1 preadipocytes; 100, 150, 200 μg/ml with adipogenesis inducers for nine days, concentration dependent (FIG. 6C-E)) | intensity of cellular lipid formation (Oil red O staining) (3T3-L1 preadipocytes; low concentration (FIG. 6C, 100 μg/ml), nine days)
CCCCCCCC(=O)NCCC(C)C [HB2032, N-isopentyloctanamide] | significantly more active than isoproterenol | to a higher degree than all the other compounds tested | no difference in cell viability | no toxicity | not cytotoxic | inhibited the differentiation of cells into adipocytes | significantly reduced
CCCCCCCC(=O)NC(CC(C)C)C(=O)O (stereo not drawn) [HB2031, 4-methyl-2-(octanoylamino) pentanoic acid] | significantly more active than isoproterenol | to a higher degree than all the other compounds tested | no difference in cell viability | no toxicity | not cytotoxic | – | –
